This note sets out measurements from PubChem BioAssay (NCI).

Among the test systems are T-47D breast; OVCAR-4 ovarian; SK-MEL-2 melanoma; SNB-75 CNS; DU-145 prostate; NCI-H522 lung; BT-549 breast; MDA-MB-435; COLO 205 colon; NCI-H23 lung; MALME-3M melanoma; HL-60(TB) leukemia; MCF7 breast; K-562 leukemia; SK-OV-3 ovarian; MDA-N; KM12 colon; OVCAR-8 ovarian; LOX IMVI melanoma; HT29 colon.
Holding throughout (experiment): DTP human tumour cell line panel, 48 h

The structures appear in SMILES notation.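 Cells were grown in 96-well plates and exposed to each compound for 48 hours at five concentrations; endpoints were interpolated linearly between bracketing concentrations, or set to the highest concentration if not reached. TGI: concentration producing complete growth inhibition.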

A word on the TGI: it is the concentration giving total growth inhibition. With `CC(=O)O[C@H]1C(=O)[C@@]2(C)C(C(OC(=O)c3ccccc3)[C@]3(O)CC(OC(=O)C(O)C(NC(=O)c4ccccc4)c4cccc(Cl)c4)C(C)=C1C3(C)C)[C@]1(OC(C)=O)CO[C@@H]1C[C@@H]2O` (stereo not given in full), the TGI is more than 10 µM in the assay on T-47D breast; more than 10 µM with OVCAR-4 ovarian; more than 10 µM in the assay on SK-MEL-2 melanoma; more than 10 µM in the assay with SNB-75 CNS; 9.16 µM with DU-145 prostate; more than 10 µM in the assay with NCI-H522 lung. In addition, the TGI is more than 10 µM in the assay with BT-549 breast; 5.06 µM with MDA-MB-435; more than 10 µM with COLO 205 colon; more than 10 µM in the assay on NCI-H23 lung; more than 10 µM with MALME-3M melanoma; 4.88 µM in the assay with HL-60(TB) leukemia. Also, the TGI in the assay with MCF7 breast was more than 10 µM; in the assay on K-562 leukemia it was more than 10 µM; in the assay on SK-OV-3 ovarian it was more than 10 µM; with MDA-N, 3.46 µM; with KM12 colon, more than 10 µM; in the assay with OVCAR-8 ovarian, more than 10 µM. In addition, the TGI with LOX IMVI melanoma and in the assay with HT29 colon was more than 10 µM in each case.

Turning to `Cn1cnc2c1c(=O)n(CCNCCO)c(=O)n2C`, the TGI with T-47D breast, with OVCAR-4 ovarian, with SK-MEL-2 melanoma, in the assay on SNB-75 CNS, in the assay with DU-145 prostate and in the assay on NCI-H522 lung was more than 100 µM throughout. The TGI in the assay with BT-549 breast, in the assay on MDA-MB-435, in the assay on COLO 205 colon, in the assay with NCI-H23 lung, in the assay on MALME-3M melanoma and in the assay on HL-60(TB) leukemia was more than 100 µM in each case. Also, the TGI in the assay with MCF7 breast, with K-562 leukemia, in the assay on SK-OV-3 ovarian, in the assay with MDA-N, with KM12 colon and with OVCAR-8 ovarian was more than 100 µM each time. Moreover, the TGI in the assay on LOX IMVI melanoma and in the assay on HT29 colon was more than 100 µM each time.

`COC(=O)[C@@H]1COC(C(C)(C)C)N1C(=O)C(c1ccccc1)c1ccccc1` (stereo not given in full): the TGI in the assay with T-47D breast, in the assay with OVCAR-4 ovarian, with SK-MEL-2 melanoma, in the assay with SNB-75 CNS, in the assay on DU-145 prostate and with NCI-H522 lung was more than 100 µM in each case. In addition, the TGI in the assay on BT-549 breast was more than 100 µM; in the assay with MDA-MB-435, more than 100 µM; in the assay with COLO 205 colon, more than 100 µM; with NCI-H23 lung, more than 100 µM; in the assay on MALME-3M melanoma, more than 100 µM; in the assay on HL-60(TB) leukemia, 83.4 µM. Further, the TGI is more than 100 µM in the assay on MCF7 breast; 70.4 µM with K-562 leukemia; 88.4 µM in the assay on SK-OV-3 ovarian; 69.2 µM in the assay with MDA-N; more than 100 µM in the assay on KM12 colon; more than 100 µM in the assay with OVCAR-8 ovarian. Further, the TGI was 52.1 µM in the assay on LOX IMVI melanoma and more than 100 µM in the assay with HT29 colon.

Turning to `COC(=O)/C=C1\CCCN1CCc1cc2c(cc1CC#N)OCO2`, the total growth inhibition concentration (TGI) in the assay on T-47D breast was more than 100 µM; with OVCAR-4 ovarian, more than 100 µM; with SK-MEL-2 melanoma it was more than 100 µM; with SNB-75 CNS, 66.8 µM; in the assay with DU-145 prostate, more than 100 µM; in the assay with NCI-H522 lung, more than 100 µM. Further, the TGI with BT-549 breast was more than 100 µM; in the assay on MDA-MB-435, 45.1 µM; in the assay on COLO 205 colon, more than 100 µM; with NCI-H23 lung it was more than 100 µM; in the assay on MALME-3M melanoma it was more than 100 µM; in the assay with HL-60(TB) leukemia, more than 100 µM. Besides, the TGI was more than 100 µM in the assay with MCF7 breast; more than 100 µM in the assay with K-562 leukemia; more than 100 µM in the assay on SK-OV-3 ovarian; 45.6 µM with MDA-N; more than 100 µM in the assay on KM12 colon; more than 100 µM in the assay with OVCAR-8 ovarian. The total growth inhibition concentration (TGI) in the assay on LOX IMVI melanoma and in the assay with HT29 colon was more than 100 µM in each case.

Regarding `CCCCCC1=C2C(c3ccc(OC)cc3)=C(N)C(c3ccc(OC)cc3)=C3NC(=O)C(C=C1)C32` (stereo not given), the TGI is more than 100 µM with T-47D breast; more than 100 µM in the assay with OVCAR-4 ovarian; more than 100 µM with SK-MEL-2 melanoma; more than 100 µM in the assay with SNB-75 CNS; more than 100 µM in the assay on DU-145 prostate; 68 µM in the assay with NCI-H522 lung. Besides, the TGI in the assay on BT-549 breast was more than 100 µM; with MDA-MB-435, more than 100 µM; in the assay with COLO 205 colon, more than 100 µM; with NCI-H23 lung, more than 100 µM; in the assay on MALME-3M melanoma, 53.7 µM; in the assay on HL-60(TB) leukemia, more than 100 µM. Moreover, the TGI with MCF7 breast, with K-562 leukemia, with SK-OV-3 ovarian, in the assay with MDA-N, in the assay on KM12 colon and in the assay with OVCAR-8 ovarian was more than 100 µM in each case. Moreover, the TGI in the assay on LOX IMVI melanoma and with HT29 colon was more than 100 µM throughout.

`N#CCC1(c2ccc(Cl)cc2)NC(=O)c2ccccc21` (stereo not given): the TGI in the assay on T-47D breast, in the assay with OVCAR-4 ovarian, with SK-MEL-2 melanoma, in the assay on SNB-75 CNS, in the assay with DU-145 prostate and in the assay with NCI-H522 lung was more than 100 µM in each case. Further, the TGI in the assay on BT-549 breast, in the assay with MDA-MB-435, in the assay on COLO 205 colon, in the assay with NCI-H23 lung, in the assay on MALME-3M melanoma and in the assay on HL-60(TB) leukemia was more than 100 µM each time. The TGI with MCF7 breast, in the assay with K-562 leukemia, in the assay with SK-OV-3 ovarian, in the assay with MDA-N, in the assay with KM12 colon and with OVCAR-8 ovarian was more than 100 µM throughout. Further, the TGI in the assay with LOX IMVI melanoma and in the assay on HT29 colon was more than 100 µM each time.
